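Five compound concentrations were applied to cells in 96-well plates for 48 hours; endpoints were derived by simple linear interpolation of the resulting dose-response curve. The concentration for 50% growth inhibition is given as GI50. TGI denotes the concentration required for complete inhibition of growth.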
Legend:
Assay in all cases: inhibition of tumour cell growth, NCI panel, 48 h
[1] = tested on: TK-10 renal
[2] = tested on: SK-OV-3 ovarian
[3] = tested on: OVCAR-5 ovarian
[4] = tested on: SNB-19 CNS
[5] = tested on: LOX IMVI melanoma
[6] = tested on: SNB-75 CNS
[7] = tested on: OVCAR-8 ovarian
[8] = tested on: RPMI-8226 leukemia
[9] = tested on: A498 renal
[10] = tested on: HT29 colon

SMILES	TGI [1] [µM]	TGI [2] [µM]	TGI [3] [µM]	TGI [4] [µM]	TGI [5] [µM]	TGI [6] [µM]	TGI [7] [µM]	TGI [8] [µM]	TGI [9] [µM]	TGI [10] [µM]	GI50 [1] [µM]	GI50 [2] [µM]	GI50 [3] [µM]	GI50 [4] [µM]	GI50 [5] [µM]	GI50 [6] [µM]	GI50 [7] [µM]	GI50 [8] [µM]	GI50 [9] [µM]	GI50 [10] [µM]
N=C(N)n1cc(/C=N/N=C(N)N)cn1	> 100	> 100	> 100	> 100	> 100	> 100	> 100	> 100	> 100	> 100	–	–	–	–	–	–	–	–	–	–
OCCNc1nc2ccccc2c2[nH]c3ccccc3c12	5.16	2.07	7.55	3.57	1.8	4.2	4.7	3.91	1.72	2.71	0.744	0.329	1.13	0.345	0.419	1.88	0.455	0.388	0.36	0.321
CC(=O)Nc1cccc(C#Cc2cncnc2Nc2ccc(OCc3cccc(F)c3)c(Cl)c2)c1	16.3	> 25	> 25	> 25	> 25	> 25	24.9	> 25	> 16.6	> 25	1.6	6.14	12.7	24.6	8.12	13.2	6.35	12.7	1.1	7.89
CN(C)CCNC(=O)Nc1ccc(N(C)c2ccnc(Nc3ccc(CS(C)(=O)=O)cc3)n2)cc1	> 25	> 25	> 25	> 25	> 25	> 25	> 25	> 25	> 25	> 25	> 25	> 25	> 25	> 25	> 25	> 12.7	> 25	> 25	> 25	> 25
C#COc1cccc(Nc2ncnc3cc(NC(=O)[C@@H](C)Cl)ccc23)c1	> 62.5	> 62.5	> 62.5	> 62.5	> 62.5	44.8	> 62.5	> 62.5	49.9	> 62.5	36.5	19.6	18	19.2	4.88	8.03	18.1	13.8	7.16	2.41
Cn1cc(-c2ccc3ncc(-c4ccc(CC(=O)Nc5cc(C(C)(C)C)nn5C)cc4)cc3c2)cn1	> 20	> 20	> 20	> 20	> 20	> 20	7.08	4.07	1.66	> 20	1.52	0.934	7.83	3.35	1.23	0.37	0.736	0.64	0.422	3.99
S=C(Sc1ccc(Cl)cc1)Sc1ccc(Cl)cc1	5.27	31.8	4.81	16	2.37	16.3	12.6	3	7.9	3.99	2.53	6.05	2.32	3.8	1.13	3.5	3.66	1.09	2.91	1.95
CCOC(=O)C1=C(C)N(NC(N)=O)C2(N)N(NC(N)=O)C(C)=C(C(=O)OCC)C12C#N (stereo unspecified)	–	> 100	> 100	> 100	> 100	> 100	> 100	> 100	> 100	> 100	–	–	–	–	–	–	–	–	–	–
CCOC(=O)C[C@@]12CCCN[C@]1(C)CCc1ccccc12	> 100	> 100	> 100	> 100	> 100	> 100	> 100	> 100	> 100	> 100	–	–	–	–	–	–	–	–	–	–
O=C(Nc1ccccc1C(=O)NC(=O)c1ccccc1NC(=O)c1ccccc1)c1ccccc1	25.9	–	13.5	24.8	13.9	8.87	23	8.23	33.3	12.7	–	–	–	–	–	–	–	–	–	–
CCOC(=O)c1cc(C(=O)c2ccc(OC)c(OC)c2)n2c1ccc1ccc3cccnc3c12	> 100	> 100	> 100	> 100	> 100	> 100	> 100	–	> 100	23	7.2	4.02	5.32	5.07	2.6	2.04	3.73	–	2.82	1.42
C[C@]12CCc3nc(Nc4ccc(O)cc4)sc3C1=CC[C@@H]1[C@@H]2CC[C@]2(C)/C(=N/NC(N)=S)CC[C@@H]12	4.35	3.25	4.8	2.94	2.86	2.46	4.55	5.8	4.9	–	2.13	1.62	1.98	1.38	1.52	0.68	1.74	1.49	2.09	–
OC1=CN=C(c2ccccc2)Oc2ccccc21	> 100	> 100	–	> 100	> 100	> 100	> 100	> 100	> 100	> 100	–	–	–	–	–	–	–	–	–	–
NC1=NC(c2ccccc2Cl)c2c(n[nH]c2N)N1 (stereo unspecified)	> 100	> 100	> 100	> 100	> 100	> 100	> 100	> 100	> 100	–	> 100	> 100	50.2	39.7	2.98	48	45.6	42.9	17.5	–

From PubChem BioAssay (NCI)
